{"source": "patent US20160312240A1", "about": "“MODIFIED PYR/PYL RECEPTORS ACTIVATED BY ORTHOGONAL LIGANDS” (The Regents of the University of California, priority 2010, published 2016)", "key": {"[1]": {"test_system": "35S::GFP-PYL2 K64R,Y124H,M164I,V67I,V114I transgenic plants", "test": "Quantitative RT-PCR of ABA reporter genes in seedlings", "assay_type": "in vivo, Arabidopsis", "settings": "100 μM fenhexamid for 6 hours, liquid culture; two independent transgenic lines; FIG. 5", "description": "FIG. 5. Characterization of seedling transcriptional responses to fenhexamid in 35S::GFP-PYL2 K64R, Y124H, M164I, V67I, V114I transgenic plants. GFP-expressing T2 seedlings from respective lines were isolated after germination on petri plates and pre-screened by epi-fluorescence microscopy and subsequently grown in liquid media culture for 7 days, after which seedlings were treated with either 100 μM fenhexamid or control (0.1% DMSO) for 6 hours. RNA was subsequently isolated from the samples and utilized in quantitative RT-PCR experiments using three well-characterized ABA responsive transcripts (as described previously, Park et al., 2009). The primer sequences used for RT-PCR analysis were obtained from Roche and synthesized by Invitrogen. Quantitative RT-PCR was performed using SybrGreen on a BioRad CFX 96 real-time PCR instrument. mRNA copy number is expressed as copy number per nanogram total RNA. Data was normalized using an ACT2 gene. Copy number was established using a standard curve of known concentration of the target genes. […]\nTo further investigate ABA-response activation, we next tested GFP^+ transgenics (T2 segregants) and appropriate controls for activation of 3 ABA reporter genes (P5CS1, RD29A, and NCED3) in response to exposure to fenhexamid in liquid culture using quantitative RT-PCR methods. […]"}, "[2]": {"molecular_target": "T1, PYR1 K59R,Y120H,M158I triple mutant (Arabidopsis thaliana, UniProt O49686, K59R/M158I/Y120H)", "T1 construct": "6×-His (N); made in house", "T1 sequence (O49686 whole entry K59R/Y120H/M158I)": "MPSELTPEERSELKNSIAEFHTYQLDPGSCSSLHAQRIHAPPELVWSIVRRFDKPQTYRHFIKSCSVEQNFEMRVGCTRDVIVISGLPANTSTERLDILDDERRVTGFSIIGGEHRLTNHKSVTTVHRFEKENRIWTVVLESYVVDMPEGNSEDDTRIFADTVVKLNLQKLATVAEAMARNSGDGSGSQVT", "T1 sequence (Q9CAJ0 23-511, further chain)": "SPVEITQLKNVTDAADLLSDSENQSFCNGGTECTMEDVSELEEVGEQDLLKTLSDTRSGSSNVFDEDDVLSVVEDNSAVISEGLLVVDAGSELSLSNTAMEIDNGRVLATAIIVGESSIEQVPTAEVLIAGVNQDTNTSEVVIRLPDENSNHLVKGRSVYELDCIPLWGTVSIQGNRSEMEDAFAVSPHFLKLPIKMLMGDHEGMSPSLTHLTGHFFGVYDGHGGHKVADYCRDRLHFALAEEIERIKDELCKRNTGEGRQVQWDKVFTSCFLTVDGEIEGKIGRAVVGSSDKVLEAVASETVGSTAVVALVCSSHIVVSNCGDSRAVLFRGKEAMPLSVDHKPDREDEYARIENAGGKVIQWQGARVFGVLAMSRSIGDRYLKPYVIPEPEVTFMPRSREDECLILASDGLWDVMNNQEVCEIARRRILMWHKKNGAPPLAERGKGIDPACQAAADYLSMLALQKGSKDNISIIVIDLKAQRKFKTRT", "test": "In vitro receptor (PP2C) assay, 2:1 receptor to phosphatase", "assay_type": "biochemical", "description": "FIGS. 2A-2B. […] FIG. 2A. The mutants (listed on left side of panel) were constructed in pBD-PYR1 and transformed into Y190 pAD-HAB1 yeast cells. The transformants were then grown on increasing concentrations of fenhexamid and scored for responsiveness using X-gal staining, performed as described in Park et al., 2009. As shown, the mutations K59R, Y120H, and M1581 are necessary for fenhexamid response by 27C-2. FIG. 2B. In vitro characterization of the PYR1 K59R, Y120H, M158I mutant. Recombinant wild-type and mutant PYR1 proteins were produced as described previously and used in PP2C assays, as described previously (Park et al., 2009), with the exception that a 2:1 ratio of receptor to phosphatase was utilized.\nTo establish the relevance of the residues identified by our screens, we focused on a highly sensitive fenhexamid-responsive mutant identified, 27C-2, which contains 5 mutations (P42S, K59R, R74C, Y120H, and M158I; SEQ ID NO:171; see Table 8) in comparison to the wild-type PYR1 sequence. […] To probe the role of the 5 mutations in fenhexamid response, each of these residues were reverted back to the wild-type residue using site-directed mutagenesis."}}, "data": [{"smiles": "CC1(C(=O)Nc2ccc(O)c(Cl)c2Cl)CCCCC1", "note": "[fenhexamid]", "values": [{"measurement": "Activation of 3 ABA reporter genes (P5CS1, RD29A, and NCED3)", "setting": "[1]", "value": "substantial induction"}, {"measurement": "IC50", "setting": "[2]", "value": "~400", "unit": "nM"}]}]}
